Test results taken from PubChem BioAssay AID180 (DTP/NCI, 2004).
“And” between values parts separate entries of the source, which are not always exact repeats. Equal values may be shown once.

System: BDF1 mice, Adenocarcinoma 755 s.c., tumor weight T/C
Assay: NCI In Vivo Anticancer Drug Screen. Data for tumor model Adenocarcinoma 755 (subcutaneous) in B6D2F1 (BDF1) mice
Conditions: endpoint: mean tumor weight, higher = larger tumour
Summary of the method: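 Tumor-bearing mice receive test compound while controls get vehicle alone. Antitumor effect is scored from survival or tumor dimensions as a T/C quotient.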

[1] = dose: 7.5 mg/kg/injection, schedule: Q01DX011 (ip), vehicle: saline
[2] = dose: 15.0 mg/kg/injection, schedule: Q01DX011 (ip), vehicle: saline

`C=CC(CN1CC1)OC(C)=O` (stereo not drawn) was tested, and the T/C (dose: 0.25 mg/kg/injection, schedule: Q01DX011 (sc), vehicle: saline) was 97 % of control, the T/C (dose: 0.5 mg/kg/injection, schedule: Q01DX010 (oral), vehicle: saline) was 28 % of control and the T/C (dose: 0.5 mg/kg/injection, schedule: Q01DX011 (ip), vehicle: methylcellulose (MC)) was 62 % of control. The T/C (dose: 0.5 mg/kg/injection, schedule: Q01DX011 (sc), vehicle: saline) was 94 % of control, the T/C (dose: 1.0 mg/kg/injection, schedule: Q01DX006 (iv), vehicle: saline) was 63 % of control and the T/C (dose: 1.0 mg/kg/injection, schedule: Q01DX010 (oral), vehicle: saline) was 21 % of control. The T/C (dose: 1.0 mg/kg/injection, schedule: Q01DX011 (ip), vehicle: methylcellulose (MC)) was 49 % of control, the T/C (dose: 1.0 mg/kg/injection, schedule: Q01DX011 (sc), vehicle: saline) was 83 % of control and the T/C (dose: 1.0 mg/kg/injection, schedule: Q02DX004 (im), vehicle: saline) was 93 % of control. The T/C (dose: 1.24 mg/kg/injection, schedule: Q01DX011 (ip), vehicle: carboxymethylcellulose (CMC)) was 202 % of control, the T/C (dose: 1.6 mg/kg/injection, schedule: Q01DX011 (ip), vehicle: carboxymethylcellulose (CMC)) was 36 % of control and the T/C (dose: 1.69 mg/kg/injection, schedule: Q01DX011 (ip), vehicle: carboxymethylcellulose (CMC)) was 81 % of control. For the same compound, the T/C (dose: 1.81 mg/kg/injection, schedule: Q01DX011 (ip), vehicle: carboxymethylcellulose (CMC)) was 76 % of control, the T/C (dose: 2.0 mg/kg/injection, schedule: Q01DX006 (iv), vehicle: saline) was 66 % of control and the T/C (dose: 2.0 mg/kg/injection, schedule: Q01DX010 (oral), vehicle: saline) was 9 % of control. For the same compound, the T/C (dose: 2.0 mg/kg/injection, schedule: Q01DX011 (sc), vehicle: saline) was 47 % of control, the T/C (dose: 2.0 mg/kg/injection, schedule: Q02DX004 (im), vehicle: saline) was 68 % of control and the T/C (dose: 2.48 mg/kg/injection, schedule: Q01DX011 (ip), vehicle: carboxymethylcellulose (CMC)) was 79 % of control. For the same compound, the T/C (dose: 2.7 mg/kg/injection, schedule: Q01DX011 (ip), vehicle: carboxymethylcellulose (CMC)) was 33 % of control, the T/C (dose: 3.2 mg/kg/injection, schedule: Q01DX011 (ip), vehicle: carboxymethylcellulose (CMC)) was 77 % of control and the T/C (dose: 3.25 mg/kg/injection, schedule: Q01DX011 (oral), vehicle: saline) was 50 % of control. The T/C (dose: 3.63 mg/kg/injection, schedule: Q01DX011 (ip), vehicle: carboxymethylcellulose (CMC)) was 51 % of control, the T/C (dose: 3.96 mg/kg/injection, schedule: Q01DX011 (ip), vehicle: carboxymethylcellulose (CMC)) was 29 % of control and 45 % of control and the T/C (dose: 4.0 mg/kg/injection, schedule: Q01DX006 (iv), vehicle: saline) was 38 % of control. The T/C (dose: 4.0 mg/kg/injection, schedule: Q01DX010 (oral), vehicle: saline) was 7 % of control, the T/C (dose: 4.0 mg/kg/injection, schedule: Q01DX011 (sc), vehicle: saline) was 19 % of control and 40 % of control and the T/C (dose: 4.0 mg/kg/injection, schedule: Q02DX004 (im), vehicle: saline) was 57 % of control. For the same compound, the T/C (dose: 6.0 mg/kg/injection, schedule: Q01DX011 (ip), vehicle: carboxymethylcellulose (CMC)) was 26 % of control, the T/C (dose: 6.4 mg/kg/injection, schedule: Q01DX011 (ip), vehicle: carboxymethylcellulose (CMC)) was 26 % of control and the T/C (dose: 6.6 mg/kg/injection, schedule: Q01DX011 (ip), vehicle: carboxymethylcellulose (CMC)) was 7 % of control and 19 % of control. For the same compound, the T/C (dose: 6.75 mg/kg/injection, schedule: Q01DX011 (ip), vehicle: carboxymethylcellulose (CMC)) was 21 % of control, the T/C (dose: 7.25 mg/kg/injection, schedule: Q01DX011 (ip), vehicle: carboxymethylcellulose (CMC)) was 10 % of control and the T/C [1] was 2 % of control and 8 % of control. The T/C (dose: 7.5 mg/kg/injection, schedule: Q01DX011 (oral), vehicle: saline) was 19 % of control, the T/C (dose: 8.0 mg/kg/injection, schedule: Q01DX006 (iv), vehicle: saline) was 16 % of control and the T/C (dose: 8.0 mg/kg/injection, schedule: Q01DX011 (ip), vehicle: carboxymethylcellulose (CMC)) was 14 % of control. For the same compound, the T/C (dose: 8.0 mg/kg/injection, schedule: Q01DX011 (sc), vehicle: saline) was 9 % of control, the T/C (dose: 8.0 mg/kg/injection, schedule: Q02DX004 (im), vehicle: saline) was 27 % of control and the T/C (dose: 9.9 mg/kg/injection, schedule: Q01DX011 (ip), vehicle: carboxymethylcellulose (CMC)) was 8 % of control and 11 % of control. For the same compound, the T/C (dose: 12.0 mg/kg/injection, schedule: Q01DX011 (ip), vehicle: carboxymethylcellulose (CMC)) was 3 % of control, the T/C [2] was 1 % of control and the T/C (dose: 62.5 micrograms/kg/injection, schedule: Q01DX011 (oral), vehicle: saline) was 51 % of control. The T/C (dose: 125.0 micrograms/kg/injection, schedule: Q01DX011 (oral), vehicle: saline) was 37 % of control, the T/C (dose: 250.0 micrograms/kg/injection, schedule: Q01DX011 (oral), vehicle: saline) was 72 % of control and the T/C (dose: 500.0 micrograms/kg/injection, schedule: Q01DX011 (oral), vehicle: saline) was 86 % of control.

With `Clc1ncnc2c1ncn2C1CCCCO1` (stereo not drawn) the T/C (dose: 31.0 mg/kg/injection, schedule: Q01DX011 (ip), vehicle: other) was 72 % of control and the T/C (dose: 62.0 mg/kg/injection, schedule: Q01DX011 (ip), vehicle: other) was 7 % of control.

For `O=P1(N(CCF)CCF)NCCCO1` (stereo not drawn), the T/C (dose: 3.75 mg/kg/injection, schedule: Q01DX011 (ip), vehicle: saline) was 62 % of control, the T/C [1] was 79 % of control and the T/C [2] was 26 % of control.

For `O=CNC(Cc1ccc(N(CCCl)CCCl)cc1)C(=O)O` (stereo not drawn), the T/C (dose: 1.25 mg/kg/injection, schedule: Q01DX011 (ip), vehicle: carboxymethylcellulose (CMC)) was 94 % of control, the T/C (dose: 1.25 mg/kg/injection, schedule: Q01DX011 (ip), vehicle: saline) was 87 % of control and the T/C (dose: 2.5 mg/kg/injection, schedule: Q01DX011 (ip), vehicle: carboxymethylcellulose (CMC)) was 54 % of control. For the same compound, the T/C (dose: 2.5 mg/kg/injection, schedule: Q01DX011 (ip), vehicle: saline) was 91 % of control, the T/C (dose: 5.0 mg/kg/injection, schedule: Q01DX011 (ip), vehicle: carboxymethylcellulose (CMC)) was 31 % of control and 50 % of control and the T/C (dose: 5.0 mg/kg/injection, schedule: Q01DX011 (ip), vehicle: saline) was 71 % of control. For the same compound, the T/C (dose: 10.0 mg/kg/injection, schedule: Q01DX011 (ip), vehicle: carboxymethylcellulose (CMC)) was 23 % of control, the T/C (dose: 10.0 mg/kg/injection, schedule: Q01DX011 (ip), vehicle: methylcellulose (MC)) was 34 % of control and the T/C (dose: 10.0 mg/kg/injection, schedule: Q01DX011 (ip), vehicle: saline) was 66 % of control. For the same compound, the T/C (dose: 20.0 mg/kg/injection, schedule: Q01DX011 (ip), vehicle: methylcellulose (MC)) was 34 % of control, the T/C (dose: 40.0 mg/kg/injection, schedule: Q01DX011 (ip), vehicle: carboxymethylcellulose (CMC)) was 2 % of control and the T/C (dose: 40.0 mg/kg/injection, schedule: Q01DX011 (ip), vehicle: methylcellulose (MC)) was 23 % of control. For the same compound, the T/C (dose: 80.0 mg/kg/injection, schedule: Q01DX011 (ip), vehicle: methylcellulose (MC)) was 4 % of control.
